Measurements: US7879344B2, “Transdermal delivery of oleocanthal for relief of inflammation” (Kimberly-Clark Worldwide, Inc., priority 2006, dated 2011)

Legend:
[1] = phenolic group of oleocanthal; carboxylic acid group of ibuprofen and similar NSAIDs; cited from earlier work
[2] = solubility in fats and oils (stated in the text, no test described); type: physicochemical; details: "it has been discovered", no data given
Excerpt: Traditionally, it has been difficult to administer ibuprofen and other similar NSAIDs transdermally. […] This is particularly problematic for transdermal administration, given the high concentration of lipids in the stratum corneum. Consequently, formulating a transdermal ibuprofen-containing composition that is capable of penetrating through the stratum corneum in effective amounts is difficult.
Without wishing to be bound to any particular theory, it is believed that the ability of oleocanthal to remain in a neutral state over a broad pH range contributes to the ability of oleocanthal to more readily penetrate the stratum corneum, as compared to ibuprofen and similar NSAIDs. […] This is advantageous for transdermal delivery. Since most transdermal compositions are formulated to have a pH of from about 3.5 to about 8.5, and more typically from about 5.0 to about 6.0, oleocanthal will mostly be in its neutral, non-ionized state when the transdermal composition is contacted with skin. In contrast, ibuprofen and similar NSAIDs, which contain a carboxylic acid group that may begin to ionize at a pH of about 4.0, will be all or partly in their ionized state (and thus […]) when the transdermal composition is contacted with skin. Consequently, oleocanthal penetrates the stratum corneum more readily than ibuprofen and other similar NSAIDs.

SMILES	pH at which the ionisable group begins to ionize [1]	solubility in fats and oils [2]
CC(C)Cc1ccc(C(C)C(=O)O)cc1 (stereo not drawn) [ibuprofen, reference compound]	about 4.0 pH	
C/C=C(/C=O)[C@@H](CC=O)CC(=O)OCCc1ccc(O)cc1 [oleocanthal]	about 9.5 pH	highly soluble
